# Source: patent publication US20190010524A1, “BIOLOGICAL METHODS FOR PREPARING A FATTY DICARBOXYLIC ACID” (Verdezyne, Inc., priority 2012, published 2019)
# System: Candida tropicalis strain (sAA496)
# Assay: Fermentation of coconut oil to mixed diacids at different pH
# Type: cell-based
# Conditions: pH 4.5; coconut oil 80 g/L; 140 hours
# Protocol: Autoclaved virgin coconut oil was added to the vessel to a final concentration of 80 g/L. A partially beta-oxidation blocked Candida tropicalis strain (sAA496) was inoculated to an initial OD600nm of 1.0 with a 5% inoculum and grown under the following conditions: 30° C. with shaking at about 1200 rpm, 1 vvm, initial pH 6.5 and initial volume of 1.0 L. The effect of pH on the distribution of fatty acid chain lengths was determined by manipulating the pH of the fermentation media. The pH of the fermentation was either 1) increased to pH 7.5 and controlled at that pH for the entire run, 2) allowed to drop-naturally due to the growth of the culture before controlling at pH 6.0 for the rest of the run; or 3) allowed to drop naturally due to the growth of the culture before controlling at pH 4.5 for the rest of the run. Samples were collected for GC analysis after 140 hours of fermentation time.
row,SMILES,Diacid composition (fraction of total diacids)
1,O=C(O)CCCCC(=O)O [Adipic Acid],0.32
2,"O=C(O)CCCCCCCCCCC(=O)O [C12 Diacid, dodecanedioic acid]",0.00
3,O=C(O)CCCCCCCCC(=O)O [Sebacic Acid],0.00
4,O=C(O)CCCCCCC(=O)O [Suberic Acid],0.68

# Same assay, conditions: pH 6.0; coconut oil 80 g/L; 140 hours
row,SMILES,Diacid composition (fraction of total diacids)
1,O=C(O)CCCCC(=O)O [Adipic Acid],0.12
2,"O=C(O)CCCCCCCCCCC(=O)O [C12 Diacid, dodecanedioic acid]",0.03
3,O=C(O)CCCCCCCCC(=O)O [Sebacic Acid],0.10
4,O=C(O)CCCCCCC(=O)O [Suberic Acid],0.75

# Same assay, conditions: pH 7.5; coconut oil 80 g/L; 140 hours
row,SMILES,Diacid composition (fraction of total diacids)
1,O=C(O)CCCCC(=O)O [Adipic Acid],0.05
2,"O=C(O)CCCCCCCCCCC(=O)O [C12 Diacid, dodecanedioic acid]",0.16
3,O=C(O)CCCCCCCCC(=O)O [Sebacic Acid],0.17
4,O=C(O)CCCCCCC(=O)O [Suberic Acid],0.62

# System: strain sAA2178
# Assay: Production of DDDA using sucrose or dextrose as co-feed (Example 68)
# Type: cell-based, Candida
# Conditions: co-feed 0.9 g/L-h
# Protocol: A pre-culture of 80 mL SP92 in a 500 mL baffled flask with foam plugs was inoculated with 1.0 mL from a frozen glycerol stock of strain sAA2178 (beta-oxidation blocked strains plus amplified CPRB, CYP52A19, ADH2a, ADH8, and HFD2) and incubated for 24 h at 30° C. and 250 RPM. […] Growth was initiated an inoculum of pre-culture to an initial OD600nm=1.0 and growth conditions of 35° C., 1000 rpm, 1 vvm, pH 5.8. Growth continued for approximately 10-12 h at which point the conversion phase was initiated by a continuous feed of ethyl laurate. […] The data from three fermentations were averaged for the comparison.
SMILES,lauric acid accumulated [g/L],"production of DDDA, less than with dextrose"
O=C[C@H](O)[C@@H](O)[C@H](O)[C@H](O)CO [dextrose],0.52,–
OC[C@H]1O[C@@](CO)(O[C@H]2O[C@H](CO)[C@@H](O)[C@H](O)[C@H]2O)[C@@H](O)[C@@H]1O [sucrose],1.56,about 3%

# Same assay, conditions: ethyl laurate feed; co-feed 0.9 g/L-h; three fermentations averaged
row,SMILES,production of DDDA [g/L-h]
1,O=C[C@H](O)[C@@H](O)[C@H](O)[C@H](O)CO [dextrose],0.872
2,OC[C@H]1O[C@@](CO)(O[C@H]2O[C@H](CO)[C@@H](O)[C@H](O)[C@H]2O)[C@@H](O)[C@@H]1O [sucrose],0.847

# System: Candida strain ATTC 20962
# Assay: Shake flask bioconversion of feedstocks of varying chain length (Example 72)
# Type: cell-based
# Conditions: ethyl esters 1% v/v, alkanes 3% v/v
# Protocol: (§1) The bioconversion tests in this Example were undertaken following a shake flask protocol. […] The YPD contained 10 g/L yeast extract, 20 g/L peptone, and 20 g/L dextrose. These cultures were then placed in a 30° C. shaking incubator at 250 rpm for 18 to 20 hours.
# (§2) After this growth phase, these cultures were used to inoculate 350 ml of SP92-glycerol media dispensed into 10-250 ml wide mouth flasks in 35 ml aliquots for each strain. The SP92-glycerol media contained 6.7 g/L yeast nitrogen base, 3 g/L yeast extract, 3 g/L ammonium sulfate, 1 g/L potassium phosphate monobasic; 1 g/L potassium phosphate, dibasic, and 75 g/L glycerol (Picataggio S., et al., Biotechnology (NY) 1992 August; 10 (8):894-8). The cultures were then placed in a 30° C. shaking incubator at 300 rpm for 20 to 24 hours.
# (§3) The cells were then centrifuged for 5 minutes at 3000 rpm and the supernatant discarded. The cells were resuspended in DCA3 medium supplemented with 1.0% triton-X100. DCA3 is a 0.3 M potassium phosphate buffer, pH 7.5 containing 6.7 g/L yeast nitrogen base and 50 g/L glycerol. Variations of DCA3 media recipes are known, non-limiting examples of which include the addition of dextrose and/or glycerol, the like or combinations thereof. DCA3 media, as referred to herein, can include dextrose and/or glycerol. After re-suspension, the OD600 nm for each culture was adjusted to a common OD (based on the available OD for the strain with the least growth) and 10 ml was transferred to pre-weighed 250 ml bottom baffled shake flasks. The flasks were then reweighed to determine the starting weight of the culture. The substrate to be converted was then added at 1% v/v for ethyl esters and 3% v/v for alkanes. The increased amount of alkanes added was due to their volatility to ensure that sufficient substrate remained in solution for bioconversion. The flasks were weighed once more to determine the exact amount of substrate added to each flask and were then placed, in a 30° C. shaking incubator at 300 rpm for 4 hours. Bioconversion tests for ethyl-stearate and ethyl palmitate were performed at 35° C. due to melting point limitations for these substrates.
# (§4) After 48 hours, the flasks were weighed once more to determine the weight of the final culture. The cultures were mixed well by swirling and 1 ml was transferred to a pre-weighed 15 ml falcon tube containing 0.8 ml of 6N HCl. The tube was weighed to determine the density of the final culture and this number used to determine the culture volume present at the final time point. Samples were submitted to analytical for analysis by GC.
row,SMILES,Feedstock Yield (g diacid/g added feedstock) ATTC-20962
1,CCCCCCCCCCCCCCCC(=O)OCC [Ethyl palmitate],0.059 g diacid/g added feedstock
2,CCCCCCCCCCCCCCCCCC(=O)OCC [Ethyl stearate],0.074 g diacid/g added feedstock
3,CCCCCCCCCCCCCC(=O)OCC [Ethyl tetradecanoate],0.347 g diacid/g added feedstock
4,CCCCCCCCCCCCC [n-Tridecane],0.680 g diacid/g added feedstock
5,CCCCCCCCCCC [n-Undecane],0.312 g diacid/g added feedstock
6,CCCCCCCCCCCCCCCCC [n-heptadecane],0.473 g diacid/g added feedstock
7,CCCCCCCCCCCCCCC [n-pentadecane],0.505 g diacid/g added feedstock

# System: sAA1082
# Assay: as above
# Type: cell-based, Candida
# Conditions: not given
# Protocol: as §1, §2, §3, §4
row,SMILES,% improvement over ATTC 20962 sAA-1082 [%]
1,CCCCCCCCCCCCCCCC(=O)OCC [Ethyl palmitate],41.8
2,CCCCCCCCCCCCCCCCCC(=O)OCC [Ethyl stearate],14.5
3,CCCCCCCCCCCCCC(=O)OCC [Ethyl tetradecanoate],16.5
4,CCCCCCCCCCCCC [n-Tridecane],38.3
5,CCCCCCCCCCC [n-Undecane],23.7
6,CCCCCCCCCCCCCCCCC [n-heptadecane],17.3
7,CCCCCCCCCCCCCCC [n-pentadecane],33.1

# Same assay, conditions: shake flask; ethyl esters 1% v/v, alkanes 3% v/v
row,SMILES,Feedstock Yield (g diacid/g added feedstock) sAA-1082
1,CCCCCCCCCCCCCCCC(=O)OCC [Ethyl palmitate],0.084 g diacid/g added feedstock
2,CCCCCCCCCCCCCCCCCC(=O)OCC [Ethyl stearate],0.085 g diacid/g added feedstock
3,CCCCCCCCCCCCCC(=O)OCC [Ethyl tetradecanoate],0.404 g diacid/g added feedstock
4,CCCCCCCCCCCCC [n-Tridecane],0.941 g diacid/g added feedstock
5,CCCCCCCCCCC [n-Undecane],0.386 g diacid/g added feedstock
6,CCCCCCCCCCCCCCCCC [n-heptadecane],0.555 g diacid/g added feedstock
7,CCCCCCCCCCCCCCC [n-pentadecane],0.673 g diacid/g added feedstock

# System: sAA2178
# Assay: as above
# Type: cell-based, Candida
# Conditions: not given
# Protocol: as §1, §2, §3, §4
row,SMILES,% improvement over ATTC 20962 sAA-2178 [%]
1,CCCCCCCCCCCCCCCC(=O)OCC [Ethyl palmitate],51.2
2,CCCCCCCCCCCCCCCCCC(=O)OCC [Ethyl stearate],92.7
3,CCCCCCCCCCCCCC(=O)OCC [Ethyl tetradecanoate],28.1
4,CCCCCCCCCCCCC [n-Tridecane],27.7
5,CCCCCCCCCCC [n-Undecane],29.3
6,CCCCCCCCCCCCCCCCC [n-heptadecane],8.6
7,CCCCCCCCCCCCCCC [n-pentadecane],16.8

# Same assay, conditions: shake flask; ethyl esters 1% v/v, alkanes 3% v/v
row,SMILES,Feedstock Yield (g diacid/g added feedstock) sAA-2178
1,CCCCCCCCCCCCCCCC(=O)OCC [Ethyl palmitate],0.090 g diacid/g added feedstock
2,CCCCCCCCCCCCCCCCCC(=O)OCC [Ethyl stearate],0.143 g diacid/g added feedstock
3,CCCCCCCCCCCCCC(=O)OCC [Ethyl tetradecanoate],0.444 g diacid/g added feedstock
4,CCCCCCCCCCCCC [n-Tridecane],0.868 g diacid/g added feedstock
5,CCCCCCCCCCC [n-Undecane],0.403 g diacid/g added feedstock
6,CCCCCCCCCCCCCCCCC [n-heptadecane],0.514 g diacid/g added feedstock
7,CCCCCCCCCCCCCCC [n-pentadecane],0.590 g diacid/g added feedstock

# System: strain sAA1082
# Assay: Production of DDDA from ethyl laurate or methyl laurate feedstock (Example 67)
# Type: cell-based, Candida
# Conditions: dextrose co-feed rate 0.9 g/L-h
# Protocol: Methyl laurate feed rates varied as follows: 0.75 g/L-h for the first 24 h; 1.2 g/L-h from 24 h to termination. Ethyl laurate was fed at a rate of 0.75 gL-h for the first 24 h; 1.28 g/L-h from 24 h to termination. […] Also at induction a co-feed of dextrose was fed at a rate of either 1.25 g/L-h or 0.9 g/L-h. In TABLE 35, data from these two ethyl laurate fermentations were compared to similar data obtained from methyl laurate fermentations run under the same conditions.
SMILES,HFA [g/L],Lauric Acid [g/L],Productivity (g/L-h)
CCCCCCCCCCCC(=O)OCC [Ethyl Laurate],2.48,2.00,0.832
CCCCCCCCCCCC(=O)OC [Methyl Laurate],3.31,8.36,0.638

# Same assay, conditions: dextrose co-feed rate 1.25 g/L-h
SMILES,HFA [g/L],Lauric Acid [g/L],Productivity (g/L-h)
CCCCCCCCCCCC(=O)OCC [Ethyl Laurate],1.64,0.71,0.879
CCCCCCCCCCCC(=O)OC [Methyl Laurate],3.83,3.88,0.832

# Same assay, conditions: higher dextrose feed
row,SMILES,improvement in productivity over the methyl laurate fermentation with similar co-feed rate
1,CCCCCCCCCCCC(=O)OCC [Ethyl Laurate],about 6%

# System: strain sAA2178
# Assay: Production of DDDA with glycerol or xylose substituted for dextrose as co-feed (Example 69)
# Type: cell-based, Candida
# Conditions: co-feed 1.25 g/L-h
# Protocol: A pre-culture of 80 mL SP92 in a 500 mL baffled flask with foam plugs was inoculated with 1.0 mL from a frozen glycerol stock of strain sAA2178 (beta-oxidation blocked strains plus amplified CPRB, CYP52A19, ADH2a, ADH8, and HFD2) and incubated for 24 h at 30° C. and 250 RPM. […] Growth was initiated with an inoculum of pre-culture to an/initial OD600nm=1.0 and growth conditions of 35° C., 1000 rpm, 1 vvm; pH 5.8. Growth continued for approximately 10-12 h at which point the conversion phase was initiated by a continuous feed of ethyl laurate. Ethyl laurate was fed at a rate of 0.75 g/L-h for the first 24 h; 1.28 g/L-h from 24 h to termination. In addition, a co-feed of either dextrose, glycerol or xylose was fed at a rate of 1.25 g/L-h for all fermentations.
SMILES,HFA levels [g/L],lauric acid accumulated [g/L],"production of DDDA, less than with dextrose"
O=C[C@H](O)[C@@H](O)[C@H](O)[C@H](O)CO [dextrose],1.24,0.37,–
OCC(O)CO [glycerol],0.33,12.28,about 60%
O=C[C@H](O)[C@@H](O)[C@H](O)CO [xylose],0.20,19.04,about 75%

# Same assay, conditions: ethyl laurate feed; co-feed 1.25 g/L-h
row,SMILES,production of DDDA [g/L-h]
1,O=C[C@H](O)[C@@H](O)[C@H](O)[C@H](O)CO [dextrose],0.825
2,OCC(O)CO [glycerol],0.327
3,O=C[C@H](O)[C@@H](O)[C@H](O)CO [xylose],0.211
